Data taken from PMC8954547, “Nonpeptidic Z360-Analogs Tagged with Trivalent Radiometals as Anti-CCK2R Cancer Theranostic Agents: A Preclinical Study” (Pharmaceutics, 2022).

How the values were obtained:
[1] = tested on: SCID mice bearing twin HEK293-CCK2i4svR and wtHEK293 tumors; assay: Biodistribution in SCID mice bearing twin HEK293-CCK2i4svR and wtHEK293 xenografts; format: in vivo
Experimental: Inocula containing a suspension of freshly harvested HEK293-CCK2i4svR/wtHEK293 cells (150 μL, 1.8 × 10^7/1.4 × 10^7 cells, respectively, in normal saline) were subcutaneously (sc) injected in the right and left flanks of male SCID mice (24.5 ± 2.3 g body weight, six weeks of age on arrival day, NCSR “Demokritos” Animal House Facility). Well-palpable tumors (0.42 ± 0.37/0.25 ± […], respectively) were grown at the inoculation site 3–4 weeks later, and biodistribution was conducted. On the day of biodistribution, animals were divided into groups of four and received the radioligand through the tail vein as a bolus (100 μL, containing each of: i. 78–91 kBq [^67Ga]GAS1/2/3 corresponding to 7–17 pmol GAS1/2/3; ii. 74–92 kBq [^111In]GAS1/2/3 corresponding to 20–25 pmol GAS1/2/3; iii. 730 kBq [^177Lu]Lu-GAS1/3 corresponding to 40 pmol GAS1/3, in-vehicle: saline/EtOH 9/1 v/v). Animals were euthanized at predetermined time intervals depending upon the radionuclide applied (for [^67Ga]Ga-GAS1/2/3: 1, 4 and 24 h pi; for [^111In]In-GAS1/2/3: 4 and 24 h pi–two extra groups of mice receiving gelofusine together with [^111In]In-GAS1/2 at 4 and 24 h pi were included; and for [^177Lu]Lu-GAS1/3: 4, 24, 48, 72 and 96 h pi). Mice were dissected, and blood samples, organs of interest and tumors were rapidly collected, weighted and counted in the gamma counter. Biodistribution data was calculated as the percentage of the administered dose per gram tissue (%IA/g) with the aid of suitable standards of the administered dose and the Microsoft Excel program. Results are presented as mean % IA/g values ± SD, n = 4 per time point, as determined by the PRISM^TM 6.0 GraphPad software (San Diego, CA, USA).

[2] = Radioligand stability in mice (radio-HPLC of blood and urine); format: in vivo; details: mean ± SD
Experimental: The formation of radiometabolites which can be detected in the blood was tested in blood samples collected 5 min post-injection (pi) of each of the radioligands [^67Ga]Ga/[^111In]In/[^177Lu]Lu-GAS1/3 and [^67Ga]Ga/[^111In]In-GAS2. For this study, in-house male Swiss albino mice (body weight: 30 ± 5 g, provided by the NCSR “Demokritos” Animal House) were used in groups of three. The animals received, through the tail vein, a 100-μL bolus containing each radioligand tested (2.5–3 nmol of the total conjugate in vehicle: saline/EtOH 9/1 v/v, corresponding to: up to 11 MBq for In-111, up to 13 MBq for Ga-67 and up to 74 MBq for Lu-177). Mice were euthanized, and blood was collected directly from the heart using a prechilled penicillin syringe and transferred in a prechilled EDTA-containing Eppendorf Protein LoBind® tube on ice (40 µL, 50 mM Na2EDTA solution). After centrifugation (10 min, 2000× g/4 °C, in a Hettich, Universal 320R, centrifuge), the blood plasma was collected, mixed with chilled MeCN in a 1/1 v/v ratio and centrifuged again (10 min, 15,000× g/4 °C). Supernatants were collected and concentrated to a small volume (≈50–100 μL) under a gentle N2-flux at 40 °C. They were then diluted with physiological saline (≈400 μL) and filtered through a Millex GV filter (0.22 μm, 13 mm Ø, Millipore, Milford, CT, USA). Aliquots of the filtrate were analyzed by radio-RP-HPLC using a Waters Symmetry Shield RP18 cartridge column (5 μm, 3.9 mm × 20 mm) eluted at a flow rate of 1.0 mL/min with the following gradient: 100% A/0% B to 55% A/45% B in 45 min; A = 0.1% aqueous TFA (v/v) and B = MeCN (system 2). The elution time (tR) of each parent radioligand was determined by coinjection of blood samples with an aliquot of the labeling solution on the HPLC column. Results were calculated as the average percentage of intact radioligand ± SD derived from three independent experiments.
Following the same injection protocol, radioligands were administered in additional groups of mice, but this time animals were euthanized 30 min pi. The urine was immediately collected from the bladder using a prechilled syringe and transferred as before in a prechilled EDTA-containing Eppendorf Protein LoBind® centrifuge tube on ice (40 µL, 50 mM Na2EDTA solution) and 0.1 mL of physiological saline. Urine proteins were precipitated by adding chilled MeCN in a 1/1 v/v ratio followed by a 10 min centrifugation step (15,000× g/4 °C). The supernatant was then collected and treated following the blood sample workup procedure. Aliquots of the Millex-GV filtrate (containing >90% of total urine activity) were analyzed by radio-HPLC, adopting the aforementioned conditions. Results were calculated as the average percentage of intact radioligand ± SD derived from three independent experiments.

[3] = tested on: HEK293-CCK2i4svR cells; assay: Radioligand uptake and internalization in HEK293-CCK2i4svR cells; format: cell-based, human
Experimental: A day before the experiment, HEK293-CCK2i4svR cells were seeded in six-well plates. The next day, cells were rinsed with ice-cold internalization medium (IM: DMEM Glutamax-I, supplemented by 1% (v/v) FBS) and then the fresh medium was added (1.2 mL) at 37 °C. A further portion of IM (150 µL) was added in the upper well-row, and DG2 solution in IM (150 µL) was added in the lower row (to a final concentration of 1 μM; non-specific series). Each of the test radioligands, [^67Ga]Ga/[^111In]In/[^177Lu]Lu-GAS1/3 and [^67Ga]Ga/[^111In]In-GAS2, was finally added (250 fmol total conjugates in 150 μL 0.5% BSA-PBS) in all the wells and the plates were incubated at for 1 h at 37 °C in an Incubator-Orbital Shaker unit (MPM Instr. SrI, Bernareggio, MI, Italy); [^111In]In-GAS1/2/3 were incubated for 15 min, 30 min, 1 h and 2 h. At the predetermined time points, the plates were placed on ice, the medium was collected, and the plates were rinsed with 0.5% BSA-PBS (1 mL). Cells were subsequently treated with an acid-wash solution (2 × 600 µL; 50 mM glycine buffer pH 2.8, 0.1 M NaCl) and the fractions collected (membrane-bound). After briefly washing with 0.5% BSA-PBS (1 mL), the cells were lysed with 1 N NaOH (2 × 600 µL), and the fractions were collected (internalized). The radioactivity content of collected fractions was counted in the gamma counter, and the percentage of internalized and membrane-bound fractions per time point were calculated with Microsoft Excel. Specific internalized and membrane-bound counts were determined by subtracting the respective non-specific (in the presence of 1 μM DG2) from the respective total counts. Results represent specific internalized/membrane bound ± SD of total added radioactivity per well from three experiments performed in triplicate.

Biodistribution, Blood ([1]; 1 h pi): 0.86 ± 0.08 %IA/g
Biodistribution, CCK2i4svR(+) Tumor ([1]; 1 h pi): 4.06 ± 0.07 %IA/g
Biodistribution, CCK2i4svR(-) Tumor ([1]; 1 h pi): 0.48 ± 0.03 %IA/g
Biodistribution, Femur ([1]; 1 h pi): 0.24 ± 0.03 %IA/g
Biodistribution, Heart ([1]; 1 h pi): 0.27 ± 0.03 %IA/g
Biodistribution, Intestines ([1]; 1 h pi): > 25 %IA/g
Biodistribution, Kidneys ([1]; 1 h pi): 1.48 ± 0.18 %IA/g
Biodistribution, Liver ([1]; 1 h pi): 5.51 ± 2.03 %IA/g
Biodistribution, Lungs ([1]; 1 h pi): 0.80 ± 0.09 %IA/g
Biodistribution, Muscle ([1]; 1 h pi): 0.12 ± 0.02 %IA/g
Biodistribution, Pancreas ([1]; 1 h pi): 0.37 ± 0.05 %IA/g
Biodistribution, Spleen ([1]; 1 h pi): 0.52 ± 0.06 %IA/g
Biodistribution, Stomach ([1]; 1 h pi): 0.32 ± 0.14 %IA/g
Biodistribution, Intestines ([1]; 1 h pi, listed as [67Ga]Ga-GAS2): 25.26 ± 2.90 %IA/g
Biodistribution, Blood ([1]; 4 h pi): 0.19 ± 0.06 %IA/g
Biodistribution, CCK2i4svR(+) Tumor ([1]; 4 h pi): 1.53 ± 0.26 %IA/g
Biodistribution, CCK2i4svR(-) Tumor ([1]; 4 h pi): 0.19 ± 0.08 %IA/g
Biodistribution, Femur ([1]; 4 h pi): 0.13 ± 0.03 %IA/g
Biodistribution, Heart ([1]; 4 h pi): 0.10 ± 0.03 %IA/g
Biodistribution, Intestines ([1]; 4 h pi): > 25 %IA/g
Biodistribution, Kidneys ([1]; 4 h pi): 0.39 ± 0.11 %IA/g
Biodistribution, Liver ([1]; 4 h pi): 2.64 ± 0.85 %IA/g
Biodistribution, Muscle ([1]; 4 h pi): 0.04 ± 0.01 %IA/g
Biodistribution, Pancreas ([1]; 4 h pi): 0.08 ± 0.05 %IA/g
Biodistribution, Spleen ([1]; 4 h pi): 0.55 ± 0.15 %IA/g
Biodistribution, Stomach ([1]; 4 h pi): 0.14 ± 0.06 %IA/g
Biodistribution, Intestines ([1]; 4 h pi, listed as [67Ga]Ga-GAS2): 26.38 ± 11.89 %IA/g
Biodistribution, Blood ([1]; 24 h pi): 0.05 ± 0.00 %IA/g
Biodistribution, CCK2i4svR(+) Tumor ([1]; 24 h pi): 0.24 ± 0.03 %IA/g
Biodistribution, CCK2i4svR(-) Tumor ([1]; 24 h pi): 0.08 ± 0.00 %IA/g
Biodistribution, Femur ([1]; 24 h pi): 0.10 ± 0.03 %IA/g
Biodistribution, Heart ([1]; 24 h pi): 0.04 ± 0.01 %IA/g
Biodistribution, Intestines ([1]; 24 h pi): 0.31 ± 0.32 %IA/g
Biodistribution, Kidneys ([1]; 24 h pi): 0.06 ± 0.01 %IA/g
Biodistribution, Liver ([1]; 24 h pi): 0.78 ± 0.17 %IA/g
Biodistribution, Lungs ([1]; 24 h pi): 0.15 ± 0.02 %IA/g
Biodistribution, Muscle ([1]; 24 h pi): 0.02 ± 0.00 %IA/g
Biodistribution, Pancreas ([1]; 24 h pi): 0.03 ± 0.00 %IA/g
Biodistribution, Spleen ([1]; 24 h pi): 0.35 ± 0.02 %IA/g
Biodistribution, Stomach ([1]; 24 h pi): 0.06 ± 0.02 %IA/g
Background clearance / excretion route ([1]; mouse, in vivo): high hepatobiliary excretion
Intact radioligand in blood ([2]; mice blood collected 5 min pi): 96.3 ± 3.7 (3) %
Intact radioligand in urine ([2]; mice urine collected 30 min pi): 81.6 ± 1.5 (3) %
Structure (SMILES): CC(C)(C)C(=O)CN1C(=O)[C@H](NC(=O)Nc2cccc(C(=O)NCCOCCOCCOCCNC(=O)[C@H](CCC(=O)O)NC(=O)CCC(C(=O)[O-])N3CCN(CC(=O)[O-])CCN(CC(=O)[O-])CC3)c2)CN(C2CCCCC2)c2ccccc21.[67Ga+3] (stereo in doubt) [[^67Ga]Ga-GAS2]
Internalized to membrane-bound ratio [3]: 0.9
Cell uptake (internalized + membrane-bound) ([3]; 1 h 37 °C, specific, of total added activity): 7.32 ± 0.57%
